± gives the standard deviation of the averaged measurements.
Columns and labels:
[1] = compound: Cc1nc(Nc2n[nH]c3c2CN(C(=O)N[C@H](CN(C)C)c2ccccc2)C3(C)C)c2sccc2n1; test: surviving fraction relative to DMSO-only wells; higher = less growth inhibition; conditions: exposure time: 5 days
Method in brief: (§1)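 Tumour cell lines were seeded in log phase at 250–500 cells per well into 384-well plates. Starting 24 hours later, inhibitors were present continuously for five days at 0.5, 1, 5, 10, 50, 100, 500 and 1000 nM. Surviving fraction, from CellTiter-Glo luminescence, is normalised to the median of DMSO-only wells. Three screens per line were required, with replicate Pearson r >0.7 and median Z' >0.3 for a line to be kept.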

PLX-4720 = compound: CCCS(=O)(=O)Nc1ccc(F)c(C(=O)c2c[nH]c3ncc(Cl)cc23)c1F [PLX-4720]; test: as above; conditions: exposure time: 5 days
Method in brief: as §1

Test System	surviving fraction ([1]; 0.5 nM)	surviving fraction ([1]; 1 nM)	surviving fraction ([1]; 5 nM)	surviving fraction ([1]; 10 nM)	surviving fraction ([1]; 50 nM)	surviving fraction ([1]; 100 nM)	surviving fraction ([1]; 500 nM)	surviving fraction ([1]; 1000 nM)	surviving fraction (PLX-4720; 0.5 nM)	surviving fraction (PLX-4720; 1 nM)	surviving fraction (PLX-4720; 5 nM)	surviving fraction (PLX-4720; 10 nM)	surviving fraction (PLX-4720; 50 nM)	surviving fraction (PLX-4720; 100 nM)	surviving fraction (PLX-4720; 500 nM)	surviving fraction (PLX-4720; 1000 nM)
HU09 BONE	0.811 ± 0.053	0.67 ± 0.084	0.473 ± 0.049	0.425 ± 0.081	0.381 ± 0.046	0.339 ± 0.028	0.174 ± 0.023	0.111 ± 0.007	0.863 ± 0.032	0.959 ± 0.13	0.873 ± 0.013	0.941 ± 0.071	1.01 ± 0.07	0.946 ± 0.14	0.898 ± 0.11	1 ± 0.11
JIMT1 BREAST	0.993 ± 0.035	0.985 ± 0.03	0.888 ± 0.029	0.839 ± 0.047	0.559 ± 0.041	0.51 ± 0.041	0.398 ± 0.029	0.323 ± 0.0049	0.857 ± 0.025	0.862 ± 0.042	0.894 ± 0.05	0.887 ± 0.046	0.966 ± 0.067	1.01 ± 0.06	0.947 ± 0.066	0.976 ± 0.037
JURKAT HAEMATOPOIETIC AND LYMPHOID TISSUE	1.01 ± 0.032	0.939 ± 0.02	0.169 ± 0.0038	0.095 ± 0.0044	0.0877 ± 0.004	0.086 ± 0.001	0.06 ± 0.001	0.051	0.9917 ± 0.0087	0.964 ± 0.02	0.935 ± 0.026	0.972 ± 0.04	0.981 ± 0.026	0.996 ± 0.059	1.03 ± 0.02	1.06 ± 0.016
KPD BONE	0.632 ± 0.036	0.569 ± 0.027	0.425 ± 0.042	0.344 ± 0.011	0.259 ± 0.021	0.224 ± 0.027	0.0937 ± 0.01	0.058 ± 0.0053	0.917 ± 0.082	0.916 ± 0.017	0.973 ± 0.024	0.982 ± 0.011	1.01 ± 0.075	0.988 ± 0.075	0.932 ± 0.085	0.9813 ± 0.0098
LM7 BONE	0.842 ± 0.039	0.674 ± 0.036	0.51 ± 0.0046	0.457 ± 0.046	0.386 ± 0.033	0.327 ± 0.036	0.115 ± 0.006	0.0547 ± 0.0084	0.725 ± 0.067	0.715 ± 0.026	0.809 ± 0.033	0.825 ± 0.03	0.884 ± 0.066	0.948 ± 0.069	0.871 ± 0.028	0.87 ± 0.031
MCF7 BREAST	0.89 ± 0.077	0.857 ± 0.024	0.621 ± 0.036	0.746 ± 0.035	0.547 ± 0.01	0.546 ± 0.022	0.395 ± 0.019	0.486 ± 0.0057	0.746 ± 0.042	0.873 ± 0.059	0.831 ± 0.033	0.83 ± 0.035	0.83 ± 0.014	0.915 ± 0.022	0.851 ± 0.021	0.899 ± 0.048
MDAMB134 BREAST	0.805 ± 0.016	0.954 ± 0.014	0.909 ± 0.029	0.924 ± 0.02	1.04 ± 0.044	1.02 ± 0.017	1.13 ± 0.035	0.961 ± 0.2	0.624 ± 0.088	0.701 ± 0.076	0.715 ± 0.014	0.78 ± 0.25	0.754 ± 0.09	0.9355 ± 0.0021	0.726 ± 0.076	0.76 ± 0.054
MDAMB157 BREAST	0.841 ± 0.14	0.792 ± 0.055	0.623 ± 0.11	0.545 ± 0.019	0.405 ± 0.055	0.29 ± 0.048	0.159 ± 0.013	0.119 ± 0.021	0.848 ± 0.032	0.962 ± 0.069	0.958 ± 0.079	1 ± 0.093	0.914 ± 0.094	1.01 ± 0.027	0.868 ± 0.082	0.86 ± 0.039
MDAMB231 BREAST	0.964 ± 0.023	0.923 ± 0.029	0.667 ± 0.012	0.591 ± 0.019	0.474 ± 0.0092	0.433 ± 0.022	0.205 ± 0.0056	0.0829 ± 0.0099	0.936 ± 0.018	0.964 ± 0.017	0.969 ± 0.024	0.9755 ± 0.0065	1.01 ± 0.031	1.03 ± 0.012	1.01 ± 0.011	1.03 ± 0.038
MDAMB361 BREAST	1.028 ± 0.0062	1.13 ± 0.074	1.1 ± 0.065	1.02 ± 0.072	0.837 ± 0.016	0.796 ± 0.054	0.5827 ± 0.004	0.238 ± 0.0081	0.888 ± 0.076	0.865 ± 0.035	0.8033 ± 0.0065	0.792 ± 0.035	0.991 ± 0.074	0.918 ± 0.097	0.96 ± 0.097	0.86 ± 0.078
MDAMB436 BREAST	0.952 ± 0.044	1 ± 0.066	0.932 ± 0.07	0.856 ± 0.071	0.718 ± 0.016	0.61 ± 0.061	0.507 ± 0.025	0.432 ± 0.03	0.754 ± 0.019	0.831 ± 0.092	0.837 ± 0.052	0.821 ± 0.024	0.9 ± 0.096	0.943 ± 0.066	0.901 ± 0.062	0.909 ± 0.1
MDAMB453 BREAST	1.14 ± 0.062	1.03 ± 0.037	0.648 ± 0.045	0.598 ± 0.018	0.416 ± 0.038	0.359 ± 0.048	0.23 ± 0.07	0.0803 ± 0.015	0.963 ± 0.054	1.01 ± 0.048	1.04 ± 0.071	1.01 ± 0.044	0.977 ± 0.075	1.03 ± 0.083	1.03 ± 0.044	1.03 ± 0.042
MDAMB468 BREAST	1.054 ± 0.0091	0.914 ± 0.085	0.213 ± 0.02	0.19 ± 0.011	0.096 ± 0.004	0.102 ± 0.0076	0.0473 ± 0.0076	0.0353 ± 0.0015	0.827 ± 0.026	0.828 ± 0.0072	0.895 ± 0.028	0.928 ± 0.024	1.04 ± 0.03	1.08 ± 0.037	0.961 ± 0.045	0.924 ± 0.025
MFM223 BREAST	1.11 ± 0.074	1.03 ± 0.049	0.827 ± 0.015	0.637 ± 0.051	0.474 ± 0.021	0.349 ± 0.038	0.14 ± 0.013	0.0562 ± 0.005	0.709 ± 0.032	0.758 ± 0.066	0.691 ± 0.098	0.754 ± 0.057	0.97 ± 0.11	1.01 ± 0.062	0.981 ± 0.025	1.01 ± 0.11
MG63 BONE	0.921 ± 0.038	0.805 ± 0.025	0.468 ± 0.0074	0.336 ± 0.024	0.257 ± 0.016	0.275 ± 0.0096	0.228 ± 0.015	0.227 ± 0.013	0.875 ± 0.01	0.884 ± 0.025	0.926 ± 0.016	0.937 ± 0.016	0.941 ± 0.012	0.958 ± 0.015	0.933 ± 0.013	0.963 ± 0.033
MHM BONE	0.953 ± 0.02	0.935 ± 0.016	0.924 ± 0.034	0.906 ± 0.015	0.692 ± 0.03	0.664 ± 0.022	0.559 ± 0.023	0.535 ± 0.014	0.9713 ± 0.0025	0.96 ± 0.016	1 ± 0.023	1.02 ± 0.021	0.97 ± 0.022	1.01 ± 0.031	0.949 ± 0.0092	1.01 ± 0.038
NCIH441 LUNG	0.955 ± 0.014	0.938 ± 0.1	0.637 ± 0.057	0.632 ± 0.0076	0.463 ± 0.026	0.452 ± 0.04	0.379 ± 0.048	0.329 ± 0.018	0.899 ± 0.056	0.906 ± 0.072	0.919 ± 0.1	0.965 ± 0.016	0.933 ± 0.045	0.968 ± 0.025	0.961 ± 0.044	0.898 ± 0.085
NOS1 BONE	0.922 ± 0.046	0.847 ± 0.078	0.695 ± 0.051	0.657 ± 0.073	0.589 ± 0.062	0.559 ± 0.062	0.272 ± 0.043	0.134 ± 0.0068	0.85 ± 0.15	1 ± 0.11	0.961 ± 0.069	0.994 ± 0.2	1.17 ± 0.059	1.25 ± 0.12	1.11 ± 0.12	0.911 ± 0.057
NY BONE	0.934 ± 0.041	0.725 ± 0.025	0.527 ± 0.016	0.467 ± 0.031	0.447 ± 0.014	0.402 ± 0.018	0.258 ± 0.011	0.0807 ± 0.0051	0.905 ± 0.038	0.909 ± 0.026	0.933 ± 0.016	0.959 ± 0.02	0.949 ± 0.014	0.9663 ± 0.004	0.932 ± 0.0095	0.9273 ± 0.0065
OS25HAL BONE	0.983 ± 0.016	0.954 ± 0.024	0.597 ± 0.036	0.367 ± 0.029	0.281 ± 0.007	0.258 ± 0.015	0.24 ± 0.032	0.218 ± 0.0047	0.902 ± 0.013	0.925 ± 0.016	0.934 ± 0.0061	0.942 ± 0.02	0.976 ± 0.01	0.98 ± 0.015	0.966 ± 0.0046	0.974 ± 0.014

From the supplement of paper PMC6045584
